Laboratory results reported in paper PMC8495692 (ACS Omega, 2021).
Marks after values point to notes of the source that are not given here.

Experiments:
[1] = tested on: human IRAK4; test: IRAK4 kinase assay; format: biochemical; conditions: 10 μM compound; ATP 10 μM
[2] = molecular target: human IRAK1 (Homo sapiens, UniProt P51617); test: IRAK1 kinase assay; format: biochemical; conditions: for inhibition at 10 µM: read-out: % of kinase inhibition (mean), IRAK1, 10 μM compound
[3] = tested on: cells overexpressing IRAK1; test: MTT cytotoxicity on cells overexpressing IRAK1; format: cell-based; conditions: Homo sapiens, read-out: IC50, toxicity on cells overexpressing IRAK1
[4] = tested on: LPS-stimulated PMA-induced human THP-1 macrophages; test: Cytokine production, CBA array beads with flow cytometry; format: cell-based; conditions: 1 μM, 24 h, compared to control DMSO
[5] = tested on: IRAK4; conditions: read-out: IC50 against IRAK4; cited from earlier work
[6] = tested on: IRAK1; conditions: read-out: IC50 against IRAK1; cited from earlier work

Chain of human IRAK1 (P51617 whole entry): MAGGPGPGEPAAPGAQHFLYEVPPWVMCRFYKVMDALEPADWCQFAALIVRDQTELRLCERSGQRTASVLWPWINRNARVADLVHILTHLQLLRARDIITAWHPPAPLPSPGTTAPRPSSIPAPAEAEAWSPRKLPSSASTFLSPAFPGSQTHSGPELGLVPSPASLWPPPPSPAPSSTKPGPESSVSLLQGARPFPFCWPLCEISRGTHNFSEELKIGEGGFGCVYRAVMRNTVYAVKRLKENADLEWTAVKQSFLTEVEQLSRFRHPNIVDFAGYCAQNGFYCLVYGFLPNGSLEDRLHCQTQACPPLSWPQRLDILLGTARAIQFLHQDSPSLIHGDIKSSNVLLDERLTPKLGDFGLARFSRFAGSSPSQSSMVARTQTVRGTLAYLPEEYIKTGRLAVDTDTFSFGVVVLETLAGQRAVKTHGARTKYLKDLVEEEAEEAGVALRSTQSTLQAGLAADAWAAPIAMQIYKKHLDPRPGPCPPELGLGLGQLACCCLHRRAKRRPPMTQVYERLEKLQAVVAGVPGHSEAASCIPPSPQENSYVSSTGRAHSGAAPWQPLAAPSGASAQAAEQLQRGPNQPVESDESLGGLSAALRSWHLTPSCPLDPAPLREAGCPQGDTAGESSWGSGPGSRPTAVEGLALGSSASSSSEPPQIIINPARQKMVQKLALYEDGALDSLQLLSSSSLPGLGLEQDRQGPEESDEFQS

| SMILES | % of kinase inhibition (mean), IRAK4 [1] | inhibition at 10 µM ([2]; ATP 10 μM) | IC50 [2] | other results |
| --- | --- | --- | --- | --- |
| O=C1C=CC(=O)C=C1 [1,4-benzoquinone] | 0% | 20% | – | – |
| O=C1C=CC(=O)c2ccccc21 [1,4-naphthoquinone] | 10% | – | 0.914 µM | IC50 [3]: < 10 µM; IL-8, IL-1β, and IL-10 levels in supernatant ([4]; p-value < 0.01): most downregulated; levels of most of measured cytokines (IL-1β, TNF-α, IL-10, IL-6, IL-8, IL-12β) in supernatant ([4]; p-value < 0.05): significant decrease |
| C=CC(=O)Nc1cccc(C(=O)Nc2ccc(NC(=O)c3cccc(-c4ccn[nH]4)n3)cc2)c1 [JH-X-119-01] | – | – | – | IC50 [5]: > 10 µM |
| O=C1C=CC(=O)c2c(O)cccc21 [juglone, 5-hydroxy-1,4-naphthoquinone] | 0% | 0% | – | – |
| C1=C/COCc2cc(ccc2OCCN2CCCC2)Nc2nccc(n2)-c2cccc(c2)COC/1 [pacritinib] | – | – | – | IC50 [5]: 0.177 µM; IC50 [6]: 0.006 µM |
| CC1=CC(=O)c2c(O)cccc2C1=O [plumbagin, 5-hydroxy-2-methyl-1,4-naphthoquinone] | 0% | – | 6.33 µM | – |

The next lines start with results.

| % of kinase inhibition (mean), IRAK4 [1] | inhibition at 10 µM ([2]; ATP 10 μM) | IC50 [2] | SMILES | other results |
| --- | --- | --- | --- | --- |
| 9% | – | 1.43 µM | Cc1cc(O)c2c(c1)C(=O)c1cc(O)cc(O)c1C2=O [emodin, 1,3,8-trihydroxy-6-methylanthraquinone] | – |
| 4% | 15% | – | Oc1ccc(O)cc1 [hydroquinone] | – |
| 3% | 8% | – | CC(C)=CCC1=C(O)C(=O)c2ccccc2C1=O [lapachol, 2-hydroxy-3-(3-methyl-2-butenyl)-1,4-naphthoquinone] | – |
| 0% | > 20% | 45.1 µM | CC1=CC(=O)c2ccccc2C1=O [menadione (Vitamin K3), menadione, reference compound] | % of kinase inhibition (mean), IRAK1 ([2]; 10 μM compound, ATP 10 μM): 28 ^a % |
| 9% | 14% | – | CC1=C(C/C=C(\C)CCC[C@H](C)CCC[C@H](C)CCCC(C)C)C(=O)c2ccccc2C1=O [phylloquinone (Vitamin K1), phylloquinone, reference compound] | – |
| 0% | – | 4.53 µM | CC(C)=CCC(O)C1=CC(=O)c2c(O)ccc(O)c2C1=O (stereo not drawn) [shikonin, 5,8-dihydroxy-2-(1-hydroxy-4-methyl-3-pentenyl)-1,4-naphthoquinone] | – |
| 0% | 5% | – | CC1=CC(=O)C(C(C)C)=CC1=O [thymoquinone, 2-isopropyl-5-methyl-1,4-benzoquinone] | – |
